{
  "source": "patent US7144912B2",
  "about": "“Pyrrole-type compounds, compositions, and methods for treating cancer, treating viral diseases and causing immunosuppression” (Gemin X Biotechnologies Inc., priority 2001, dated 2006)",
  "key": {"[1]": {"test_system": "H1299 non-small cell lung carcinoma cells", "test": "caspase activation in lysates of treated cells (apoptosis)", "format": "cell-based", "details": "H1299 cancer cell line; 16 hr incubation; positive = 1.5-fold (150%) of dimethyl sulfoxide control", "protocol": "(§1) H1299 non-small cell lung carcinoma cells, C33A cervical carcinoma cells, Mrc-5 normal lung fibroblasts (American Type Culture Collection, Manassas, Va. USA) and HMEC normal mammary epithelial cells (Clonetics San Diego, Calif., USA) were maintained in media recommended by the American Type Culture Collection. Cells were harvested and suspended at 2.5–5×10^5 cells/ml in media. A 45 μL aliquot of cell suspension was added to each well of a 96-well microtiter plate (PerkinElmer Life Sciences Inc, Boston, Mass. USA). Cells were incubated overnight in a 5% CO2-95% humidity incubator at 37° C. and then, 5 μL of a 10% dimethyl sulfoxide (Sigma-Aldrich Inc., St. Louis, Mo. USA) solution containing various concentrations of Compound 79 or 5 μL of 10% dimethyl sulfoxide (solvent control) were added. The plates were further incubated for 16 hr. […]\n(§2) The reaction was then filtered using Sephadex G-10 Poly-Prep chromatography column (Amersham Biosciences, Inc, Piscataway, N.J., USA). […] The number of radioactive counts per minute (cpm) in each well of the sample plate was measured using a liquid scintillation counter (PerkinElmer Life Sciences Inc, Boston, Mass. USA). The potency of caspase cascade activation was determined by the percentage increase in cpm in wells compared to cells treated only with dimethyl sulfoxide."}, "[2]": {"test_system": "C33A cervical carcinoma cells", "test": "caspase activation in lysates of treated cells (apoptosis)", "format": "cell-based", "details": "C33A cancer cell line; 16 hr incubation; positive = 1.5-fold (150%) of dimethyl sulfoxide control", "protocol": "as §1, §2"}},
  "data": [
    {"smiles": "COC1=CC(c2ccc[nH]2)=N/C1=C/c1cc2ccccc2[nH]1", "note": "[Compound 79, 4-methoxy-5-(1H-indol-2yl-methylene)-2,2′-bi-1H-pyrrole]", "values": [
      {"measurement": "Concentration Required for Positive Caspase Activation", "setting": "[1]", "result": 250, "unit": "µM"},
      {"measurement": "Concentration Required for Positive Caspase Activation", "setting": "[2]", "result": 125, "unit": "µM"}
    ]}
  ]
}
